Results published in PubChem BioAssay AID1982 (Sanford-Burnham Center for Chemical Genomics, 2009).
Calls of active or inactive are those of the source. The rule behind the calls is not given here.

What was measured:
Assay in all cases: kinase panel binding selectivity, selectivity assay, biochemical, KINOMEscan (AID 1982)
RPS6KA6(Kin.Dom.2) = conditions: KINOMEscan 353-kinase binding panel, qPCR, at 10 µM, hits give low values
JAK1(Kin.Dom.1) = conditions: KINOMEscan 353-kinase binding panel, qPCR, at 10 µM, hits give low values
DDR2 = conditions: KINOMEscan 353-kinase binding panel, qPCR, at 10 µM, hits give low values
[1] = molecular target: Casein kinase I isoform gamma-1 (Homo sapiens) (UniProt Q9HCP0); conditions: KINOMEscan 353-kinase binding panel, qPCR; CSNK1G1; at 10 µM; hits give low values
NEK5 = conditions: KINOMEscan 353-kinase binding panel, qPCR, at 10 µM, hits give low values
DAPK1 = conditions: KINOMEscan 353-kinase binding panel, qPCR, at 10 µM, hits give low values
DAPK2 = conditions: KINOMEscan 353-kinase binding panel, qPCR, at 10 µM, hits give low values
SNARK = conditions: KINOMEscan 353-kinase binding panel, qPCR, at 10 µM, hits give low values
[2] = molecular target: Epidermal growth factor receptor (Homo sapiens) (UniProt P00533); conditions: KINOMEscan 353-kinase binding panel, qPCR, at 10 µM, hits give low values
Chain of Epidermal growth factor receptor (Homo sapiens) (P00533 whole entry, looked up): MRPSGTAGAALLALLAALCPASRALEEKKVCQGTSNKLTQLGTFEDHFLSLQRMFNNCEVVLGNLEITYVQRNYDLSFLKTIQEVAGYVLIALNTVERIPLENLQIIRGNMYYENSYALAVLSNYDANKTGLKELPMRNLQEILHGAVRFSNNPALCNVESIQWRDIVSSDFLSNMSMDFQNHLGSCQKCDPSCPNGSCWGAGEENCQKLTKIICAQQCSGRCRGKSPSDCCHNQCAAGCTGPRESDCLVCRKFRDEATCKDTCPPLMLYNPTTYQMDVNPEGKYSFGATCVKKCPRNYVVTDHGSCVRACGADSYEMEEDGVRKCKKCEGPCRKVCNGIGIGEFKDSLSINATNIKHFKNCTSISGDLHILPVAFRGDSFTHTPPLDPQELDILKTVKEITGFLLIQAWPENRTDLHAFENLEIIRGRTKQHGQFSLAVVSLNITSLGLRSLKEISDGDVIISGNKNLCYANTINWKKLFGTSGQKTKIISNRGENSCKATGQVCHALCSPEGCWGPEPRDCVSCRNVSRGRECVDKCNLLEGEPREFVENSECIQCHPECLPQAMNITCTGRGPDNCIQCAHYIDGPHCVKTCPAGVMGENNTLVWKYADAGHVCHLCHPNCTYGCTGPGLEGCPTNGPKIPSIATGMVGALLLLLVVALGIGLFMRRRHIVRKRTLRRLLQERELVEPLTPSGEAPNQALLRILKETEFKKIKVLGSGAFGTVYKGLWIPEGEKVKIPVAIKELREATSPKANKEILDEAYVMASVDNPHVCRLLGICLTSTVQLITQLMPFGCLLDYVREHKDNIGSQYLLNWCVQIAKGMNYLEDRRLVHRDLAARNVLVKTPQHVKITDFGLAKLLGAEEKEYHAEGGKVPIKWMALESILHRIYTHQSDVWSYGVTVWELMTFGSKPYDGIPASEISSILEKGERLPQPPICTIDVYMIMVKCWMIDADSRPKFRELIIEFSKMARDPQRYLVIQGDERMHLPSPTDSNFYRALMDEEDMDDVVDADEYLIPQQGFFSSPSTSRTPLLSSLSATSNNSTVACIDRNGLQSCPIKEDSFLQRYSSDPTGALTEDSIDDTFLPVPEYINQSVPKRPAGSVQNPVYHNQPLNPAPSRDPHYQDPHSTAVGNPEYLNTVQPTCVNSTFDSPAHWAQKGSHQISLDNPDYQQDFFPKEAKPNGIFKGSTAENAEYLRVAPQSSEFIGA

AAK1 = conditions: KINOMEscan 353-kinase binding panel, qPCR, at 10 µM, hits give low values
ULK1 = conditions: KINOMEscan 353-kinase binding panel, qPCR, at 10 µM, hits give low values
[3] = molecular target: Serine/threonine-protein kinase BRSK1 (Homo sapiens) (UniProt Q8TDC3); conditions: KINOMEscan 353-kinase binding panel, qPCR, at 10 µM, hits give low values
TAOK3 = conditions: KINOMEscan 353-kinase binding panel, qPCR, at 10 µM, hits give low values
[4] = molecular target: Insulin-like growth factor 1 receptor (Homo sapiens) (UniProt P08069); conditions: KINOMEscan 353-kinase binding panel, qPCR; IGF1R; at 10 µM; hits give low values
Chain of Insulin-like growth factor 1 receptor (Homo sapiens) (P08069 whole entry, looked up): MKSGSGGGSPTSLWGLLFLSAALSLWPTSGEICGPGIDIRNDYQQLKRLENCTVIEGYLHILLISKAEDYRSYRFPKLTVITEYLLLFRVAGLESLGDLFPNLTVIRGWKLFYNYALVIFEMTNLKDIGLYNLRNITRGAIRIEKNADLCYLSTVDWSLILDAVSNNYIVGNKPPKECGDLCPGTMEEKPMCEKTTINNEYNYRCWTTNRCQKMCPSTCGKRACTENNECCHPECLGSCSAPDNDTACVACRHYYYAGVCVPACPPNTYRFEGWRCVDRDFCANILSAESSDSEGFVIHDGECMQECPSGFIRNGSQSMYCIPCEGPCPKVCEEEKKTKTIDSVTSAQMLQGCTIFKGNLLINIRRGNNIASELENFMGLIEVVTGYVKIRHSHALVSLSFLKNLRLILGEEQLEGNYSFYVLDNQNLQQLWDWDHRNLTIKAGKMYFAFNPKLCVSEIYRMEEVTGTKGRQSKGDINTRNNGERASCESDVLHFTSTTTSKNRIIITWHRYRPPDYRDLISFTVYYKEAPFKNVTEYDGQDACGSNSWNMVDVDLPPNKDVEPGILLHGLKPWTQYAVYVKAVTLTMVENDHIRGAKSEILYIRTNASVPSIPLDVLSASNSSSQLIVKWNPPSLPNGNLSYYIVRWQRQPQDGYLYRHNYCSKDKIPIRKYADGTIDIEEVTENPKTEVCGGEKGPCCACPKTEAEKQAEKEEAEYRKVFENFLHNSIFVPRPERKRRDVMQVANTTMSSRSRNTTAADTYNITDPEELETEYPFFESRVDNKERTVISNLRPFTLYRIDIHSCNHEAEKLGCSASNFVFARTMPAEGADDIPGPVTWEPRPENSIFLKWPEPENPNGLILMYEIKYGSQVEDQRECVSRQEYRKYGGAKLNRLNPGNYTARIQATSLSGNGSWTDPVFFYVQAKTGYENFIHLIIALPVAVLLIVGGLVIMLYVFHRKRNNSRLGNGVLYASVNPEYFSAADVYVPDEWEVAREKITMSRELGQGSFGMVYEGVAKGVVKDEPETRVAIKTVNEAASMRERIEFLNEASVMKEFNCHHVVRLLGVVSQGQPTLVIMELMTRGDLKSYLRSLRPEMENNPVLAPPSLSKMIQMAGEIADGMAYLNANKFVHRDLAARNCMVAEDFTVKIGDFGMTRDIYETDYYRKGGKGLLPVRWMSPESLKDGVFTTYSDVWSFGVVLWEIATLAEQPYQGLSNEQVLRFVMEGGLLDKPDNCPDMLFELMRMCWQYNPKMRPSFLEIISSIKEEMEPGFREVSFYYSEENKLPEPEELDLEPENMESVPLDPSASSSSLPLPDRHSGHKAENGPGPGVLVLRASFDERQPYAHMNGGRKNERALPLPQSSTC

[5] = molecular target: Inhibitor of nuclear factor kappa-B kinase subunit alpha (Homo sapiens) (UniProt O15111); conditions: KINOMEscan 353-kinase binding panel, qPCR; IKK-alpha; at 10 µM; hits give low values
TGFBR1 = conditions: KINOMEscan 353-kinase binding panel, qPCR, at 10 µM, hits give low values
[6] = molecular target: Tyrosine-protein kinase ITK/TSK (Homo sapiens) (UniProt Q08881); conditions: KINOMEscan 353-kinase binding panel, qPCR, at 10 µM, hits give low values
Chain of Tyrosine-protein kinase ITK/TSK (Homo sapiens) (Q08881 whole entry, looked up): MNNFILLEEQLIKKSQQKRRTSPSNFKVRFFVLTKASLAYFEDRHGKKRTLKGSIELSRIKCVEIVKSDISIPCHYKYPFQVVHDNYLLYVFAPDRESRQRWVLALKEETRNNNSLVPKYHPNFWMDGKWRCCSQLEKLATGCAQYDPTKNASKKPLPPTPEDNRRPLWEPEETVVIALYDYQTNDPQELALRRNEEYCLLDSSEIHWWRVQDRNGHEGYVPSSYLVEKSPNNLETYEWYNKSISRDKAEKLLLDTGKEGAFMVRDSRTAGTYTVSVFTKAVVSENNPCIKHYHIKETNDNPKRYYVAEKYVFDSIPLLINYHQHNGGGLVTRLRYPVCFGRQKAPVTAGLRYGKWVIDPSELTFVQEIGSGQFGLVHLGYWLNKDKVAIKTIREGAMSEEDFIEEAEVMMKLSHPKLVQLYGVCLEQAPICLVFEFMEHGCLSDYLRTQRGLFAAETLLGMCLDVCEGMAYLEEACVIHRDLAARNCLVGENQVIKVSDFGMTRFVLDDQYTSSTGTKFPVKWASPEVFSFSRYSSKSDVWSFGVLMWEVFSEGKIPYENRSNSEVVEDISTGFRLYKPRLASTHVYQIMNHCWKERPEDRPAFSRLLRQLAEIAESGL

LATS1 = conditions: KINOMEscan 353-kinase binding panel, qPCR, at 10 µM, hits give low values
ZAP70 = conditions: KINOMEscan 353-kinase binding panel, qPCR, at 10 µM, hits give low values
[7] = molecular target: Mitogen-activated protein kinase 10 (Homo sapiens) (UniProt P53779); conditions: KINOMEscan 353-kinase binding panel, qPCR; JNK3; at 10 µM; hits give low values
YANK3 = conditions: KINOMEscan 353-kinase binding panel, qPCR, at 10 µM, hits give low values
[8] = molecular target: Fibroblast growth factor receptor 3 (Homo sapiens) (UniProt P22607); conditions: KINOMEscan 353-kinase binding panel, qPCR, at 10 µM, hits give low values
Chain of Fibroblast growth factor receptor 3 (Homo sapiens) (P22607 whole entry, looked up): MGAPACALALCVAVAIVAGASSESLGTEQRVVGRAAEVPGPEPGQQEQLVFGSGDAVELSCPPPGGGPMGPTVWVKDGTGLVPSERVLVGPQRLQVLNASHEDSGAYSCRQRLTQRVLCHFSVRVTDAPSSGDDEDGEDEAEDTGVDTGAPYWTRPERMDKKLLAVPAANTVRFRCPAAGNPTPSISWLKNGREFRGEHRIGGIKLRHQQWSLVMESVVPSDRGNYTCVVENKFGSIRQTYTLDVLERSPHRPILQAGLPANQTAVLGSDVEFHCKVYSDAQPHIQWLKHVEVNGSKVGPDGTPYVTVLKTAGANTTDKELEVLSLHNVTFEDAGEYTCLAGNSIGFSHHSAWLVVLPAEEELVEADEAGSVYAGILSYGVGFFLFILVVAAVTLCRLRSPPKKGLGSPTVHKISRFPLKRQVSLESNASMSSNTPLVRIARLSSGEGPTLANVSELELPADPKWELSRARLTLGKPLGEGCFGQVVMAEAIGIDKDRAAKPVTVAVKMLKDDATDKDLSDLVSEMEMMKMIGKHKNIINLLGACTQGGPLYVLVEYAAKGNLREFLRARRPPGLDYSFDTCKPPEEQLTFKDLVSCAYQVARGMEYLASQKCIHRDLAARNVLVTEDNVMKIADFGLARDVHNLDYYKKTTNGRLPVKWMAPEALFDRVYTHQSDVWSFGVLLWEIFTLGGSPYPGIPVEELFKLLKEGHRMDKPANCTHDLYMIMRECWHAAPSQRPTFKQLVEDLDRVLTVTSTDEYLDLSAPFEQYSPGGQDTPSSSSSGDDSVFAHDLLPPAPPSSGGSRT

MAP3K3 = conditions: KINOMEscan 353-kinase binding panel, qPCR, at 10 µM, hits give low values
MAP4K3 = conditions: KINOMEscan 353-kinase binding panel, qPCR, at 10 µM, hits give low values
SRPK2 = conditions: KINOMEscan 353-kinase binding panel, qPCR, at 10 µM, hits give low values
TGFBR2 = conditions: KINOMEscan 353-kinase binding panel, qPCR, at 10 µM, hits give low values
STK16 = conditions: KINOMEscan 353-kinase binding panel, qPCR, at 10 µM, hits give low values
MYO3A = conditions: KINOMEscan 353-kinase binding panel, qPCR, at 10 µM, hits give low values
TEC = conditions: KINOMEscan 353-kinase binding panel, qPCR, at 10 µM, hits give low values
YSK1 = conditions: KINOMEscan 353-kinase binding panel, qPCR, at 10 µM, hits give low values
[9] = molecular target: Mitogen-activated protein kinase kinase kinase kinase 4 (Homo sapiens) (UniProt O95819); conditions: KINOMEscan 353-kinase binding panel, qPCR; MAP4K4; at 10 µM; hits give low values
[10] = molecular target: Serine/threonine-protein kinase pim-3 (Homo sapiens) (UniProt Q86V86); conditions: KINOMEscan 353-kinase binding panel, qPCR; PIM3; at 10 µM; hits give low values
MAP4K1 = conditions: KINOMEscan 353-kinase binding panel, qPCR, at 10 µM, hits give low values
CDC2L2 = conditions: KINOMEscan 353-kinase binding panel, qPCR, at 10 µM, hits give low values
[11] = molecular target: MAP/microtubule affinity-regulating kinase 3 (Homo sapiens) (UniProt P27448); conditions: KINOMEscan 353-kinase binding panel, qPCR; MARK3; at 10 µM; hits give low values
Chain of MAP/microtubule affinity-regulating kinase 3 (Homo sapiens) (P27448 whole entry, looked up): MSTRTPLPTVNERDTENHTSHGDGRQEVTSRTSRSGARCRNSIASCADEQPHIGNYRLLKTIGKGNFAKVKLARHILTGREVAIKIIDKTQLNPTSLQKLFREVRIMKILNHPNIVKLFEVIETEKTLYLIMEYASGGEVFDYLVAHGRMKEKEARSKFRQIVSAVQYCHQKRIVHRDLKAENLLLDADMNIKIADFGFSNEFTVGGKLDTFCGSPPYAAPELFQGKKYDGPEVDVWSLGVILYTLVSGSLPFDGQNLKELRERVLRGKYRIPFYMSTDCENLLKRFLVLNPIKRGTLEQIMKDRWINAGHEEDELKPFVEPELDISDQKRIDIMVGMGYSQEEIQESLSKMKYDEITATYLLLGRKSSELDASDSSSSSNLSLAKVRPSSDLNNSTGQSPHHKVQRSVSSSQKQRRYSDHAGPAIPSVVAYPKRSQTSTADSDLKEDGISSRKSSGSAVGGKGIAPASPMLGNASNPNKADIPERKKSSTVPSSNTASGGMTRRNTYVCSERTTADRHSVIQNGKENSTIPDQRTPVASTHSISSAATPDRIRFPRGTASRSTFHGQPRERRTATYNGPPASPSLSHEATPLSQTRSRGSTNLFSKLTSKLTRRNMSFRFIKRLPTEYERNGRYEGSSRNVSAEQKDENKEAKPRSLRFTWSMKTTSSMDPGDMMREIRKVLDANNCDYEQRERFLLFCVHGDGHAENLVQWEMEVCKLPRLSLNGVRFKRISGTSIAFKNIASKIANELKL

[12] = molecular target: Cyclin-dependent kinase 2 (Homo sapiens) (UniProt P24941); conditions: KINOMEscan 353-kinase binding panel, qPCR; CDK2; at 10 µM; hits give low values
ADCK4 = conditions: KINOMEscan 353-kinase binding panel, qPCR, at 10 µM, hits give low values

Measured: percent of control binding

Cc1cc2nc(NCCCO)n(CC(=O)c3cc(C(C)(C)C)c(O)c(C(C)(C)C)c3)c2cc1C
inactive: RPS6KA6(Kin.Dom.2) 100% | JAK1(Kin.Dom.1) 100% | DDR2 65% | [1] 91% | NEK5 91% | DAPK1 87% | DAPK2 100% | SNARK 80% | [2]; EGFR(E746-A750del) 100% | [2]; EGFR(G719C) 89% | [2]; EGFR(G719S) 100% | [2]; EGFR(L747-E749del, A750P) 87% | [2]; EGFR(L747-S752del, P753S) 100% | [2]; EGFR(L747-T751del,Sins) 97% | [2]; EGFR(L858R) 77% | [2]; EGFR(L861Q) 59% | [2]; EGFR(S752-I759del) 100% | [2]; EGFR 86% | AAK1 100% | ULK1 100% | [3] 100% | TAOK3 99% | [4] 54% | [5] 74% | TGFBR1 92% | [6] 100% | LATS1 94% | ZAP70 70% | [7] 86% | YANK3 100% | [8]; FGFR3(G697C) 100% | [8]; FGFR3 80% | MAP3K3 82% | MAP4K3 100% | SRPK2 100% | TGFBR2 100% | STK16 77% | MYO3A 89% | TEC 98% | YSK1 84% | [9] 66% | [10] 100% | MAP4K1 100% | CDC2L2 100% | [11] 100% | [12] 95% | ADCK4 100%
